# Assay results published in patent US9315490B2, “2,5-substituted pyrimidines” (Grünenthal GmbH, priority 2014, dated 2016).
# Target: T1, human PDE4B1 (Homo sapiens, UniProt Q07343)
# T1 construct: host or cells: Sf9 cells
# Assay: cAMP HTRF assay to determine the activity of hPDE4B1
# Assay type: biochemical
# Settings: inhibition of PDE4B at a test concentration of 1 μM
# Protocol: Biological Testing cAMP HTRF® Assay to Determine the Activity of hPDE4B1
# The inhibiting effect of the compounds on the enzyme activity of human PDE4B1 was measured by the quantification of 5′-adenosine monophosphate (5′-AMP), which is formed from 3′,5′-cyclic adenosine monophosphate (cAMP). Human recombinant enzyme, expressed in Sf9 cells, and the HTRF (homogeneous time-resolved fluorescence) detection method were used in the assay.
# The test compound or water (control) was mixed with the human recombinant PDE4B1 enzyme (4.8 U) in a buffer consisting of 44.4 mM tris-HCl, 5.28 mM MgCl2, 2.64 mM DTT and 0.044% Tween 20 (pH 7.8). After adding the cAMP enzyme substrate (final concentration 40 nM), the mixture was incubated for 30 minutes at room temperature. Then a fluorescence acceptor (Dye2 marked with cAMP), a fluorescence donor (anti-cAMP antibody marked with a europium cryptate) and the non-specific phosphodiesterase inhibitor IBMX (3-isobutyl-1-methylxanthine; final concentration 1 mM) were added. After 60 minutes the fluorescence transfer, which correlates with the amount of remaining cAMP, was measured with a microplate reader (Rubystar, BMG) at λex=337 nm, λem=620 nm and λem=665 nm. The enzyme activity was calculated from the quotient formed from the measured signal at 665 nm and that at 620 nm. The result was expressed as the percentage inhibition of enzyme activity of the control (without PDE4 inhibitor). The enzyme was omitted for measurement of the basal control. IC50 values (IC50=concentration causing a half-maximal inhibition of control specific activity) were derived from dose response measurements with eight different concentrations (n=2; N=1-3).
# Literature: N. Saldou et al., Comparison of recombinant human PDE4 isoforms: interaction with substrate and inhibitors, Cell. Signal. Vol. 10, No. 6, 427-440, 1998
# T1 sequence (Q07343 whole entry): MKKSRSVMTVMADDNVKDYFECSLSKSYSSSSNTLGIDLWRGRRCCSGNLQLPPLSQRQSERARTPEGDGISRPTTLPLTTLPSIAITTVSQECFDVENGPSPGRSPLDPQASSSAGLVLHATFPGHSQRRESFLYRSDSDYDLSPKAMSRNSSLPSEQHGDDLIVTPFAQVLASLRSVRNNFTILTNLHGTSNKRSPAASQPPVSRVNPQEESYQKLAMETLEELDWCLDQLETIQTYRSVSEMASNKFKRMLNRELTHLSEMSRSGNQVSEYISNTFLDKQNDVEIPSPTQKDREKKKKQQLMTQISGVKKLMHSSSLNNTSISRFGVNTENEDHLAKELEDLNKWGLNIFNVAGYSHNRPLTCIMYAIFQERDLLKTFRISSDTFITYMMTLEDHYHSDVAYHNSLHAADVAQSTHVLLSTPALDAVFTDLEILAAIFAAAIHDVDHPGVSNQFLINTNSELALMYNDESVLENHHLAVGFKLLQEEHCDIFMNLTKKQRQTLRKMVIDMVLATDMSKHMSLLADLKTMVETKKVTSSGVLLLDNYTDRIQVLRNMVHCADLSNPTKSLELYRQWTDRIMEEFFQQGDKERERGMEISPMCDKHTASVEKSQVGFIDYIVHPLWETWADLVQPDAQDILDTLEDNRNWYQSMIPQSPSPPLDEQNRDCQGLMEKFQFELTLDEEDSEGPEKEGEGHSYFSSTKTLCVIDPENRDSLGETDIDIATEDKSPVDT
SMILES,inhibition at 1 µM [%],Inhibition in % (1 µM) [%]
"C[S+]([O-])c1cn(-c2ncc(-c3cccc(F)n3)cn2)c2cc(C(=O)N3CCOCC3)ccc12 (stereo not shown) [Example 185, (1-(5-(6-Fluoropyridin-2-yl)pyrimidin-2-yl)-3-(methylsulfinyl)-1H-indol-6-yl)(morpholino)methanone]",97,
"Cc1cccc(-c2cnc(-n3cc(S(C)(=O)=O)c4ccc(C(=O)N5CC[C@@H](N)C5)cc43)nc2)c1 [Example 167, (R)-(3-Aminopyrrolidin-1-yl)(3-(methylsulfonyl)-1-(5-(m-tolyl)pyrimidin-2-yl)-1H-indol-6-yl)methanone]",87,
"C[S+]([O-])c1cn(-c2ncc(-c3cc(O)ccc3F)cn2)c2cc(C(=O)N3CCOCC3)ccc12 (stereo not shown) [Example 41, (1-(5-(2-Fluoro-5-hydroxyphenyl)pyrimidin-2-yl)-3-(methylsulfinyl)-1H-indol-6-yl)(morpholino)methanone]",100,
"C[C@@H]1COCCN1C(=O)c1ccc2c([S+](C)[O-])cn(-c3ncc(-c4ccccc4F)cn3)c2c1 (stereo partly drawn) [Example 179, (1-(5-(2-Fluorophenyl)pyrimidin-2-yl)-3-(methylsulfinyl)-1H-indol-6-yl)((R)-3-methylmorpholino)methanone]",90,
"C[S+]([O-])c1cn(-c2ncc(-c3ccc(C#N)cc3)cn2)c2cc(C(=O)N3CCOCC3)ccc12 (stereo not shown) [Example 31, 4-(2-(3-(Methylsulfinyl)-6-(morpholine-4-carbonyl)-1H-indol-1-yl)pyrimidin-5-yl)benzonitrile]",75,
"CC(O)CN(C)C(=O)c1ccc2c([S+](C)[O-])cn(-c3ncc(-c4ccccc4F)cn3)c2c1 (stereo not shown) [Example 168, 1-(5-(2-Fluorophenyl)pyrimidin-2-yl)-N-(2-hydroxypropyl)-N-methyl-3-(methylsulfinyl)-1H-indole-6-carboxamide]",43,
"C[C@@H]1CN(C(=O)c2ccc3c([S+](C)[O-])cn(-c4ncc(-c5ccccc5F)cn4)c3c2)CCO1 (stereo partly drawn) [Example 84, (1-(5-(2-Fluorophenyl)pyrimidin-2-yl)-3-(methylsulfinyl)-1H-indol-6-yl)((R)-2-methylmorpholino)methanone]",106,
"CN(C)C(=O)c1ccc2c([S+](C)[O-])cn(-c3ncc(-c4ccccc4F)cn3)c2c1 (stereo not shown) [Example 52, 1-(5-(2-Fluorophenyl)pyrimidin-2-yl)-N,N-dimethyl-3-(methylsulfinyl)-1H-indole-6-carboxamide]",91,
"COc1ccc(-c2cnc(-n3cc([S+](C)[O-])c4ccc(C(=O)N5CCOCC5)cc43)nc2)cc1 (stereo not shown) [Example 33, (1-(5-(4-Methoxyphenyl)pyrimidin-2-yl)-3-(methylsulfinyl)-1H-indol-6-yl)(morpholino)methanone]",88,
"COC[C@H]1CCCN1C(=O)c1ccc2c([S+](C)[O-])cn(-c3ncc(-c4ccccc4F)cn3)c2c1 (stereo partly drawn) [Example 77, (1-(5-(2-Fluorophenyl)pyrimidin-2-yl)-3-(methylsulfinyl)-1H-indol-6-yl)((R)-2-(methoxymethyl)pyrrolidin-1-yl)methanone]",67,
"C[S+]([O-])c1cn(-c2ncc(-c3ccccc3)cn2)c2cc(C(=O)N3CCNC(=O)C3)ccc12 (stereo not shown) [Example 70, 4-(3-(Methylsulfinyl)-1-(5-phenylpyrimidin-2-yl)-1H-indole-6-carbonyl)piperazin-2-one]",84,
"C[S+]([O-])c1cn(-c2ncc(-c3ccccc3F)cn2)c2cc(C(=O)N3CCOC(C)(C)C3)ccc12 (stereo not shown) [Example 74, (2,2-Dimethylmorpholino)(1-(5-(2-fluorophenyl)pyrimidin-2-yl)-3-(methylsulfinyl)-1H-indol-6-yl)methanone]",,63
"COc1cccc(-c2cnc(-n3cc(S(C)(=O)=O)c4ccc(C(=O)N5CCOCC5)cc43)nc2)c1 [Example 159, (1-(5-(3-Methoxyphenyl)pyrimidin-2-yl)-3-(methylsulfonyl)-1H-indol-6-yl)(morpholino)methanone]",98,
"CN(CCO)C(=O)c1ccc2c([S+](C)[O-])cn(-c3ncc(-c4ccccc4F)cn3)c2c1 (stereo not shown) [Example 64, 1-(5-(2-Fluorophenyl)pyrimidin-2-yl)-N-(2-hydroxyethyl)-N-methyl-3-(methylsulfinyl)-1H-indole-6-carboxamide]",67,

# Results, then the compound that gave them:
inhibition at 1 µM [%],Inhibition in % (1 µM) [%],SMILES
45,,"C[C@H](O)CN(C)C(=O)c1ccc2c([S+](C)[O-])cn(-c3ncc(-c4ccccc4F)cn3)c2c1 (stereo partly drawn) [Example 251, 1-(5-(2-Fluorophenyl)pyrimidin-2-yl)-N—((S)-2-hydroxypropyl)-N-methyl-3-(methylsulfinyl)-1H-indole-6-carboxamide]"
66,,"CCN1CCN(C(=O)c2ccc3c([S+](C)[O-])cn(-c4ncc(-c5ccccc5F)cn4)c3c2)CC1 (stereo not shown) [Example 375, (4-Ethylpiperazin-1-yl)(1-(5-(2-fluorophenyl)pyrimidin-2-yl)-3-(methylsulfinyl)-1H-indol-6-yl)methanone]"
47,,"CN(C)[C@@H]1CCN(C(=O)c2ccc3c([S+](C)[O-])cn(-c4ncc(-c5ccccc5F)cn4)c3c2)C1 (stereo partly drawn) [Example 374, ((R)-3-(Dimethylamino)pyrrolidin-1-yl)(1-(5-(2-fluorophenyl)-pyrimidin-2-yl)-3-(methylsulfinyl)-1H-indol-6-yl)methanone]"
95,,"CC(O)c1cn(-c2ncc(-c3ccccc3)cn2)c2cc(C(=O)N3CCOCC3)ccc12 (single isomer, unassigned) [Example 254, (3-(1-Hydroxyethyl)-1-(5-phenylpyrimidin-2-yl)-1H-indol-6-yl)(morpholino)methanone]"
0,,"CN(C)C(=O)CN1CCN(C(=O)c2ccc3c([S+](C)[O-])cn(-c4ncc(-c5ccccc5F)cn4)c3c2)CC1 (stereo not shown) [Example 395, 2-(4-(1-(5-(2-Fluorophenyl)pyrimidin-2-yl)-3-(methylsulfinyl)-1H-indole-6-carbonyl)piperazin-1-yl)-N,N-dimethylacetamide]"
106,,"CS(=O)(=O)c1cn(-c2ncc(-c3cc(C#N)ccc3F)cn2)c2cc(C(=O)N3CC[C@@H](N)C3)ccc12 [Example 229, (R)-3-(2-(6-(3-Aminopyrrolidine-1-carbonyl)-3-(methylsulfonyl)-1H-indol-1-yl)pyrimidin-5-yl)-4-fluorobenzonitrile]"
101,,"C[S+]([O-])c1cn(-c2ncc(-c3ccccc3F)cn2)c2cc(C(=O)N3C[C@@H]4C[C@H]3CN4)ccc12 (stereo partly drawn) [Example 240, (1S,4S)-2,5-Diazabicyclo[2.2.1]heptan-2-yl(1-(5-(2-fluorophenyl)pyrimidin-2-yl)-3-(methylsulfinyl)-1H-indol-6-yl)methanone]"
8,,"CN(C)C1CCN(C(=O)c2ccc3c([S+](C)[O-])cn(-c4ncc(-c5ccccc5F)cn4)c3c2)CC1 (stereo not shown) [Example 387, (4-(Dimethylamino)piperidin-1-yl)(1-(5-(2-fluorophenyl)pyrimidin-2-yl)-3-(methylsulfinyl)-1H-indol-6-yl)methanone]"
0,,"CCOC(=O)N1CCN(C(=O)c2ccc3c([S+](C)[O-])cn(-c4ncc(-c5ccccc5F)cn4)c3c2)CC1 (stereo not shown) [Example 394, Ethyl 4-(1-(5-(2-fluorophenyl)pyrimidin-2-yl)-3-(methylsulfinyl)-1H-indole-6-carbonyl)piperazine-1-carboxylat]"
110,,"COc1ccc(F)c(-c2cnc(-n3cc(S(C)(=O)=O)c4ccc(C(=O)N5CC[C@@H](N)C5)cc43)nc2)c1 [Example 230, (R)-(3-Aminopyrrolidin-1-yl)(1-(5-(2-fluoro-5-methoxyphenyl)pyrimidin-2-yl)-3-(methylsulfonyl)-1H-indol-6-yl)methanone]"
6,,"CC(C)N1CCN(C(=O)c2ccc3c([S+](C)[O-])cn(-c4ncc(-c5ccccc5F)cn4)c3c2)CC1 (stereo not shown) [Example 386, (1-(5-(2-Fluorophenyl)pyrimidin-2-yl)-3-(methylsulfinyl)-1H-indol-6-yl)(4-isopropylpiperazin-1-yl)methanone]"
110,,"Cc1cccc(-c2cnc(-n3cc([S+](C)[O-])c4ccc(C(=O)N5CCNC(=O)C5)cc43)nc2)c1 (single isomer, unassigned) [Example 215, 4-(3-(Methylsulfinyl)-1-(5-(m-tolyl)pyrimidin-2-yl)-1H-indole-6-carbonyl)piperazin-2-one]"
52,,"C[S+]([O-])c1cn(-c2ncc(-c3ccccc3F)cn2)c2cc(C(=O)N3CCN(CCO)CC3)ccc12 (stereo not shown) [Example 389, (1-(5-(2-Fluorophenyl)pyrimidin-2-yl)-3-(methylsulfinyl)-1H-indol-6-yl)(4-(2-hydroxyethyl)piperazin-1-yl)methanone]"
32,,"CS(=O)(=O)c1cn(-c2ncc(-c3ccccc3F)cn2)c2cc(C(=O)N3C[C@H]4C[C@@H]3CO4)ccc12 [Example 238, (1R,4R)-2-Oxa-5-azabicyclo[2.2.1]heptan-5-yl(1-(5-(2-fluorophenyl)pyrimidin-2-yl)-3-(methylsulfonyl)-1H-indol-6-yl)methanone]"
